Where a SMILES comes first, the peptide text is derived from it.

For series [1], the target named is T1, Flag-NEMO (Mus musculus, UniProt O88522, A144V/E216G/P360T/S248N).
T1 construct: expressed in transfected cells
The series can be described thus: Pull-down of Flag-NEMO from JM4.5.2/Flag-NEMO cells treated with Bodipy-conjugated peptides, bead fluorescence. It counts as cell-based, murine. Particulars: 20 μM peptide, 4 h. As for the experimental part: 5·10^6 JM4.5.2/Flag-NEMO cells were seeded in 6-well plates (3 ml/well) and incubated with 20 μM of Bodipy-conjugated peptides (BA-NLM or BA-DR NLM) for 4 h at 37° C. Cells were centrifuged at 400×g for 5 min, resuspended in 200 μl of an hypotonic buffer (10 mM TrisHCl pH 7.9, 1.5 mM MgCl2, 10 mM KCl), left on ice for 20 min and lysed by several passage through a 26 G needle. Lysates were clarified at 15 000×g for 20 min and 80 μg of total proteins were incubated with 40 μl of agarose anti-Flag M2 beads for 1 h at 4° C. The Flag-NEMO protein were pulled down with the agarose anti-Flag M2 beads by centrifugation for 1 min. Beads were resuspended in 100 μl of hypotonic buffer and the fluorescence of NEMO linked peptide was read on microplate reader from SAFAS. NEMO coated beads were analyzed by Western blotting using anti-Flag M2 monoclonal antibodies to normalize the sample using the UN-SCAN-IT software. […]

The test system of series [2] is ERK and p38 pathway. The series can be described thus: SRE-luc reporter assay in Jurkat cells stimulated with PMA and ionomycin. Conditions: 5 μM peptide, T-lymphocytes. It is filed as cell-based, human. As for the experimental part:
(§1) Jurkat T cells (clone 20) were transiently transfected by a DEAE-dextran method with a reporter plasmid containing the luciferase under the control of a promoter inducible by the ERK and p38 pathway (SRE-luc; Courtois et al., 1997, Mol. Cell. Biol, 17:1441-1449), the NF-AT pathway or the API pathway (respectively NF-AT-luc and AP1-luc; Northrop et al., 1993, J. Biol. […]., 268:2917-2923). Briefly, cells were washed and resuspended at 10^7 cells/ml in TBS containing 0.5 mg/ml of DEAE-dextran (Pharmacia). 1 μg per 2·10^6 cells of reporter plasmid was added. After 45 min at room temperature, the cells were diluted with 10 volumes of TBS, centrifuged, and resuspended at 10^6 cells/ml in 10% FCS-RPMI. After 24 h, cells were incubated with or without 5 μM NEMO-derived peptides (BA-NLM or BA-DR NLM) for 2 h. They were stimulated or mock-stimulated with 100 ng/ml PMA and 1 μg/ml ionomycin for 5 h, and finally lysed in luciferase buffer (25 mM Tris-phosphate pH 7.8 containing 8 mM MgCl2, 1 mM DTE, 1% Triton X100, 15% glycerol). Luciferase measurement was carried out in a Berthold Luminometer.

The test system of series [3] is NF-AT pathway. Kind of series: NF-AT-luc reporter assay in Jurkat cells stimulated with PMA and ionomycin. Particulars: 5 μM peptide, T-lymphocytes. It is filed as cell-based, human. The method, then: as §1
The nature of series [4]: Circular dichroism and gel filtration, self-association of peptides. It is filed as physicochemical. Particulars: peptide concentration up to 100 μM; data not shown. As for the experimental part:
Far-UV circular dichroism (CD) measurements were performed with an Aviv 215 spectropolarimeter with samples diluted in 10 mM NaPO4 at pH 7.
Then, unlike the LZ peptide, DR NLM peptide as well as NLM peptide are unable to self-associate. Self association of LZ peptide is described by Agou et al., 2004b.

T1 sequence (O88522 with tags, fused parts or gaps A144V/E216G/S248N/P360T): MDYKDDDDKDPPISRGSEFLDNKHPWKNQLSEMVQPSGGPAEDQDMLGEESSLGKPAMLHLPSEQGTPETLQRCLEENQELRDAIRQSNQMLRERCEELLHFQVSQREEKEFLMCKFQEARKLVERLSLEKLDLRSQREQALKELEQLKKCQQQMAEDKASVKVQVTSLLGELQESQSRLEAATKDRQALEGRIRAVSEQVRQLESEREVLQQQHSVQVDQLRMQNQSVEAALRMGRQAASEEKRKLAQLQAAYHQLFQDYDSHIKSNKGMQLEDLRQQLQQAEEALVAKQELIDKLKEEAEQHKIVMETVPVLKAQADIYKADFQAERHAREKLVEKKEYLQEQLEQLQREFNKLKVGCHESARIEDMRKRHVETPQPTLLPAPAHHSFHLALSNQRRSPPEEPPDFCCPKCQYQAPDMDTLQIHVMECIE

Turning to `CC[C@H](C)[C@H](NC(=O)[C@H](CC(=O)O)NC(=O)[C@H](C)NC(=O)[C@H](CCC(N)=O)NC(=O)[C@H](C)NC(=O)[C@H](CCCCN)NC(=O)[C@H](CC(C)C)NC(C)=O)C(=O)N[C@@H](Cc1ccc(O)cc1)C(=O)N[C@@H](CCCCN)C(=O)N[C@@H](C)C(=O)N[C@@H](CCCNC(=N)N)C(=O)N[C@@H](Cc1ccccc1)C(=O)N[C@@H](CCC(N)=O)C(=O)N[C@@H](C)C(=O)N[C@@H](CCC(=O)O)C(=O)N[C@@H](CCCNC(=N)N)C(=O)N[C@@H](Cc1c[nH]cn1)C(=O)N[C@@H](C)C(=O)N[C@@H](CCCNC(=N)N)C(=O)N[C@@H](CCC(=O)O)C(=O)N[C@@H](CCCCN)C(N)=O` [DR NLM] (Ac-LKAQADIYKARFQAERHAREK-NH2; N-terminus and C-terminus assumed), the “peptide bound to NEMO in cells (bead fluorescence)” value in series [1] is reported as “binds specifically to NEMO”. In series [2], the “effect on ERK and p38 pathways” value is given as “does not abrogate”. Further, the “effect on NF-AT pathway” value in series [3] was “does not abrogate”. Also, the “oligomeric state / self-association” value in series [4] is given as “behave as monomer”.

Source of the values: patent US20100240040A1, “METHOD FOR SCREENING FOR SELECTIVE MODULATOR OF THE NF-KB PATHWAY ACTIVATION” (INSTITUT PASTEUR, priority 2007, published 2010).
